# According to patent US20180256495A1 (MEDRx Co., Ltd., priority 2008, published 2018):
# Read-outs that look alike come from different tables or passages of the source.
# Tests used:
# [1] = cited from earlier work; for logP (Log P of organic acid, Calculated) / logP of organic acid (calc.) / Log P of organic acid (calc.): organic acid itself; for logP (calc.): basic drug itself, value published in PubMed; for log P: lipid solubility of the named drug or organic acid itself
# [2] = State of the liquid preparation (precipitation, homogeneity, solubility or dispersion of the salt)
# [3] = Evaluation test of transdermal absorbability (skin penetrability) with a Franz diffusion cell; assay type: in vitro ADME; conditions: free basic drug, liquid preparation 2 w/w %, rat skin, 32° C.
# [4] = stated in brackets in the synthesis examples; cited from earlier work
# [5] = wrapped cell, full remark: tendency of salt to be divided into two layers
Compound,"logP (Log P of organic acid, Calculated) ([1]; value from PubMed)",Log P of organic acid (calc.) ([1]; value from PubMed),Penetrated Amount (amount of skin-penetrated drug during 3 hours) [3],logP of organic acid (calc.) ([1]; value from PubMed),other results
CCCCC(CC)C(=O)O (stereo not drawn) [2-ethylhexanoic acid],2.7,,,,
CC(O)CC(=O)O (stereo not drawn) [3-hydroxybutyric acid],−0.5,,,,
"CC(O)C(=O)O.CCN(CC)CC(=O)Nc1c(C)cccc1C [Lactic acid salt of lidocaine, lactic acid salt of lidocaine]",,,,,"Remarks, Test Example 7: 2% liquid preparation (solvent system) ([2]; wrapped cell, full remark: homogeneously dispersed solution): homogeneously; Remarks, Example 13: 20% viscous liquid preparation (liquid paraffin) [2, 5]: tendency of salt to; Remarks, Example 14: 20% viscous liquid preparation (solvent + liquid paraffin) [2, 5]: tendency of salt to"
CC(=O)NCC(=O)O [N-acetylglycine],,−3.1,,,logP of organic acid (calc.) [1]: −3.1
CC(=O)Oc1ccccc1C(=O)O [acetylsalicylic acid],1.4,,,,
"CN(C)CCC=C1c2ccccc2CCc2ccccc21 [amitriptyline, reference compound]",,,7 μg/cm^2,,logP (calc.) [1]: 4.9; log P [1]: 4.9
"CCc1ccc(C(=O)C(C)CN2CCCCC2)cc1 (stereo not drawn) [eperisone, reference compound]",,,14 μg/cm^2,,logP (calc.) [1]: 3.6
CN(C)CCCN1c2ccccc2CCc2ccccc21 [imipramine],,,10 μg/cm^2,,
CC(C)CCCCCCCCCCCCCCC(=O)O [isostearic acid],7,7,,7,logP of organic acid (calc.) [1]: 7
CC(=O)CCC(=O)O [levulinic acid],−0.4,−0.4,,−0.4,logP of organic acid (calc.) [1]: −0.4
COCC(=O)O [methoxyacetic acid],−0.6,−0.6,,−0.6,"logP of organic acid (calc.) [1]: −0.6; Remarks (state of the liquid preparation) ([2]; morphine 2 w/w % liquid preparation with the row's acid, wrapped cell 'small amount of' + 'precipitation' = small amount of white precipitation remained): homogeneous solution"
CCCCCCCC(=O)O [octanoic acid],,3,,3,logP of organic acid (calc.) [1]: 3
O=C(O)c1ccc(O)cc1 [p-hydroxybenzoic acid],1.2,,,,
"CC(C)=CCN1CCC2(C)c3cc(O)ccc3CC1C2C (stereo not drawn) [pentazocine, reference compound]",,,40 μg/cm^2,,logP (calc.) [1]: 3.7; log P [1]: 3.7; pKa [4]: 8.0
CCC(=O)O [propionic acid],,0.2,,0.2,
O=C(O)c1ccccc1O [salicylic acid],2.4,2.4,,2.4,
"Cc1ccc(C(=O)C(C)CN2CCCCC2)cc1 (stereo not drawn) [tolperisone, reference compound]",,,26 μg/cm^2,,logP (calc.) [1]: 3.1
"COc1cccc(C2(O)CCCCC2CN(C)C)c1 (stereo not drawn) [tramadol, reference compound]",,,122 μg/cm^2,,logP (calc.) [1]: 2.4; log P [1]: 2.4
